Source: US11584733B2, “Selective histone deacetylase inhibitors for the treatment of human disease” (Shuttle Pharmaceuticals, Inc., priority 2017, dated 2023)
Values joined by “and” are separate entries in the source; they are usually repeats but may differ in a detail not shown here. Identical values can stand only once. “Also recorded” adds a separate entry of the source.

Target: T1, Human recombinant HDAC6 (Homo sapiens, UniProt Q9UBN7)
T1 sequence (Q9UBN7 1-1215): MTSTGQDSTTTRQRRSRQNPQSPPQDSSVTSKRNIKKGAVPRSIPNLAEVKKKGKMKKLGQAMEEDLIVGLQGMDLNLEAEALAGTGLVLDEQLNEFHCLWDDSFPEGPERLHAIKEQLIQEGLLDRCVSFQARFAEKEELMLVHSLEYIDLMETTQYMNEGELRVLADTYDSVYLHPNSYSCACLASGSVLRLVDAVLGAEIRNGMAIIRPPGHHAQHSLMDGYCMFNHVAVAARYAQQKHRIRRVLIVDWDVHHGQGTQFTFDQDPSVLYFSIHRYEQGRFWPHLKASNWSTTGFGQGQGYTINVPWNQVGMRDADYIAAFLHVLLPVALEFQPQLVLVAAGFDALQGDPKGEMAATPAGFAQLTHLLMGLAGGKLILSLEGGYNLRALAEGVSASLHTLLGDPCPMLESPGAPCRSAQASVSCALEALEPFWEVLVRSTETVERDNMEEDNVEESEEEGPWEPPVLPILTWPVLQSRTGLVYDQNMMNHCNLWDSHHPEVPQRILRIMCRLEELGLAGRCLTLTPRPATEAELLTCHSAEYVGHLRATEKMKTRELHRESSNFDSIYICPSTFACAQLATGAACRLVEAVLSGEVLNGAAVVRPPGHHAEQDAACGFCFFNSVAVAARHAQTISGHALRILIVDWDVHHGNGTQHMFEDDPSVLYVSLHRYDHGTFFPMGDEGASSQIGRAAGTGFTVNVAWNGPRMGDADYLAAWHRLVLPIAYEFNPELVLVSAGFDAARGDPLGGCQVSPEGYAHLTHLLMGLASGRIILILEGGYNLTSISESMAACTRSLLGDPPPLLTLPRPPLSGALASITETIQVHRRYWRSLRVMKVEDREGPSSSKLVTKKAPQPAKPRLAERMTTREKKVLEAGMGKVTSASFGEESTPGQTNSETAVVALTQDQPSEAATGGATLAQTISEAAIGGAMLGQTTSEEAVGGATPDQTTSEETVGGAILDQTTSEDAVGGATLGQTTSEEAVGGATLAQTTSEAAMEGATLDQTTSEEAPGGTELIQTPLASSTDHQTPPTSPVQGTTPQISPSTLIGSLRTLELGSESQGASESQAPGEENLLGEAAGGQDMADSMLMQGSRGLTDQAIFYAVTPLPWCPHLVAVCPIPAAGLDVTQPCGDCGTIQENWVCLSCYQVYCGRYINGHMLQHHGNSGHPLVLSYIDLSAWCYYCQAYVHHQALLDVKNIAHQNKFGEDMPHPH
Test: HDAC isomer assay, Fluor-de-Lys, HDAC6
Assay type: biochemical
Settings: for EC50: Example 4, FIGS. 5, 6 and 8, read-out: EC50 against HDAC6; for greater potency for HDAC6 as compared to HDAC1: FIG. 14; for selectivity for HDAC6 as compared to pan-HDACs (and HDAC1, HDAC3), in words: FIGS. 1, 7, 8, 18
Protocol: The HDAC isomer (HDAC1, 3, and 6) assays were performed as follows:
Materials: Human recombinant HDAC isomer (HDAC1, HDAC3, and HDAC6); Fluor-de-Lys HDAC substrates; 360 nm excitation 460 nm emission Plate Reader; Disposable pipettes; Pipet-aid; Pipette tips; Micro-pipetter; DMSO; Sterile micro-tubes and conical tubes; and Micro-centrifuge.
Test compounds and control preparation: All test compounds' stock solutions were made in 100% DMSO. Test compound dilutions were made in HDAC Assay buffer with a final concentration of DMSO less than or equal to 1%. Vehicle control was HDAC Assay buffer with 1% DMSO.
The reagents for the assay were prepared as follows:
1. All kit components were defrosted and these, and all dilutions described below, were kept on ice until use.
2. A sufficient amount of HDAC source diluted in Assay Buffer (BML-KI143) was prepared to provide for the assays that were performed (# of wells×15 μl). A 30-fold dilution of the HeLa Extract means that 15p L contains 0.5 μl of the undiluted Extract, an appropriate amount to use per well.
3. Dilution(s) of SAHA and/or Test Inhibitors were prepared in Assay Buffer (BML-KI143). Since 10 μl were used per well, and since the final volume of the HDAC reaction was 50p, these inhibitor dilutions were 5× their final concentration.
4. Dilution(s) of the Fluor de Lys® Substrate (BML-KI104; 50 mM) were prepared in Assay Buffer (BML-KI143) that were 2× the desired final concentration(s). For inhibitor screening, substrate concentrations at or below the Km are recommended. Twenty-five μL were used per well. […] Rapid mixing and dilution into room temperature buffer helped to prevent precipitation at high substrate concentration.
5. Shortly before use (<30 min.), sufficient Fluor de Lys® Developer was prepared for the assays to be performed (50 μl per well). First, the Fluor de Lys® Developer Concentrate was diluted 20-fold (e.g. 50 μl plus 950 μl Assay Buffer) in cold Assay Buffer (BML-K1143). […] The addition of SAHA to the Developer insures that HDAC activity stops when the Developer is added. The Developer was kept on ice until use.
1. Assay buffer, diluted trichostatin A or test inhibitor was added to appropriate wells of the microtiter plate.
2. Diluted HeLa extract or other HDAC sample was added to all wells except those that are to be “No Enzyme Controls.”
3. Diluted Fluor de Lys® Substrate and the samples in the microtiter plate were allowed to equilibrate to assay temperature (e.g. 25 or 37° C.).
4. HDAC reactions were initiated by adding diluted substrate (25 μl) to each well and mixing thoroughly.
5. HDAC reactions were allowed to proceed for desired length of time and then stop them by addition of Fluor de Lys® Developer (50 μl). The plates were incubated at room temperature (25° C.) for 10-15 min.
6. Samples were read in a microtiter-plate reading fluorimeter capable of excitation at a wavelength in the range 350-380 nm and detection of emitted light in the range 440-460 nm.

| EC50 | more selective for HDAC6 as compared to HDAC1 (Example 6, FIG. 18) | more selective for HDAC6 as compared to HDAC3 (Example 6, FIG. 18) | IC50 (Example 6, FIG. 18, 2 mg/mL formulation in 5% DMSO/40% PEG 400/55% PBS, read-out: IC50 against HDAC6 protein) [nM] | greater potency for HDAC6 as compared to HDAC1 [fold] | selectivity for HDAC6 as compared to pan-HDACs (and HDAC1, HDAC3), in words (listed as N^1-(2-(2,6-dioxopiperidin-3-yl)-1-oxoisoindolin-4-yl)-N^8-hydroxyoctanediamide) | SMILES | selectivity for HDAC6 as compared to pan-HDACs (and HDAC1, HDAC3), in words |
| --- | --- | --- | --- | --- | --- | --- | --- |
| 6.2 nM | about 26 times | about 51 times | 60 | 258 | surprising selective for HDAC6 | O=C(CCCCCCC(=O)Nc1cccc2c1CN(C1CCC(=O)NC1=O)C2=O)NO (stereo not shown) [SP-2-93, N^1-(2-(2,6-dioxopiperidin-3-yl)-1-oxoisoindolin-4-yl)-N^8-hydroxyoctanediamide] | substantial preference and selectivity for HDAC6; also recorded: highly selective for HDAC 6 |
| 52 nM and 68 nM |  |  |  | 83 |  | O=C(CCCCCCC(=O)NC1CCC(=O)NC1=O)NO (stereo not shown) [SP-2-59, N^1-(2,6-dioxopiperidin-3-yl)-N^8-hydroxyoctanediamide] | substantial preference and selectivity for HDAC6 |
